# In patent US20250171438A1 (Agios Pharmaceuticals, Inc., priority 2022, published 2025):
# Target: T1, human PAH with the R408W mutation (Homo sapiens, UniProt P00439, R408W)
# T1 construct: expressed in transfected cells
# T1 sequence (P00439 1-452 R408W): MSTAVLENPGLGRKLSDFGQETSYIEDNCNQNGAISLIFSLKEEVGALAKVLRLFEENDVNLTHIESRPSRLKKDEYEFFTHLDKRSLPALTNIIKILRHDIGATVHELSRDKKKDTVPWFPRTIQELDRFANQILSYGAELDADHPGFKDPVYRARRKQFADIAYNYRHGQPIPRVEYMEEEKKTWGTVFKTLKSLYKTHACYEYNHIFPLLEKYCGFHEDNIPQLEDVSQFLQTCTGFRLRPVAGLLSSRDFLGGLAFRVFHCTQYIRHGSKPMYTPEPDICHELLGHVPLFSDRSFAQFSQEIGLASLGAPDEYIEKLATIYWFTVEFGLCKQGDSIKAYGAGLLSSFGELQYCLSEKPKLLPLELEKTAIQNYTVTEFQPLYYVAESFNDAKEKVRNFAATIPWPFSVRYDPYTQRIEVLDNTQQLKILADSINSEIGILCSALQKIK
# Test: Cell Based Phenylalanine Flux Assay
# Conditions: A375 cells expressing human R408W PAH; 24 hrs with compound; 13C-Tyrosine by LC-MS; average where tested multiple times; read-out: AC50
# Description: Compounds were resuspended in DMSO, and 2-fold serial dilutions were performed to generate a 10-point dose curve. Compounds were added to plated cells in a total volume of 100 pal, and a final DMSO concentration of 0.5%. Each compound was tested in duplicate. Following compound addition, cells were placed in a 5% CO2, 37° C. tissue culture incubator for 24 hrs. After the incubation period, 20 μM sepiapterin and 800 μM 13C9,15N-Phenylalanine were added. After 4 hours, cell media was removed. An aliquot of 10 μl of cell media was combined with 200 μl of extraction buffer (80% acetonitrile/20% H2O) for each well. Determination of ^13C-Tyrosine concentration was assessed by liquid chromatography mass spectrometry.
# Where a compound was tested multiple times, the average value of the tests is reported.
row,Compound,AC50
1,CC(=O)N1CCc2[nH]cnc2C1c1nc2ccccc2s1 (stereo not drawn),> 5 µM
2,Cc1nnc(CCC(=O)N2CCc3[nH]cnc3C2c2nc3cc(F)ccc3s2)s1 (stereo not drawn) [listing 1 of 2 here],> 5 µM
3,O=C(CCc1nccs1)N1CCc2[nH]cnc2C1c1nc2cc(F)ccc2s1 (stereo not drawn) [listing 1 of 2 here],> 5 µM
4,O=C(Cc1nc(C(F)(F)F)cs1)N1CCc2[nH]cnc2C1c1nc2ccc(Br)cc2[nH]1 (stereo not drawn) [listing 1 of 2 here],> 5 µM
5,O=C(Cc1nc(C(F)(F)F)cs1)N1CCc2[nH]cnc2C1c1nc2ccc(Cl)cc2[nH]1 (stereo not drawn) [listing 1 of 2 here],> 5 µM
6,O=C(CCc1nccs1)N1CCc2[nH]cnc2C1c1nc2ccc(Cl)cc2s1 (stereo not drawn) [listing 1 of 2 here],> 5 µM
7,O=C(Cc1nc(C(F)(F)F)cs1)N1CCc2[nH]cnc2C1c1nc2ccc(F)cc2[nH]1 (stereo not drawn) [listing 1 of 2 here],> 5 µM
8,O=C(Cc1nccs1)N1CCc2[nH]cnc2C1c1nc2ccc(F)cc2[nH]1 (stereo not drawn) [listing 1 of 2 here],> 5 µM
9,O=C(Cc1nc2ccccc2s1)N1CCc2[nH]cnc2C1c1nc2ccccc2s1 (stereo not drawn),1 to 5 µM
10,Cc1nnc(N2CCc3[nH]cnc3C2c2nc3ccccc3[nH]2)o1 (stereo not drawn),> 5 µM
11,O=C(c1nc2ccc(F)cc2s1)N1CCc2[nH]cnc2C1c1nc2ccccc2s1 (stereo not drawn) [listing 1 of 2 here],> 5 µM
12,O=C(c1ccsn1)N1CCc2[nH]cnc2C1c1nc2ccccc2s1 (stereo not drawn) [listing 1 of 2 here],> 5 µM
13,O=C(c1nc2ccccc2s1)N1CCc2[nH]cnc2C1c1nc2cc(F)ccc2s1 (stereo not drawn) [listing 1 of 2 here],> 5 µM
14,O=C(c1ncco1)N1CCc2[nH]cnc2C1c1nc2ccccc2s1 (stereo not drawn) [listing 1 of 2 here],> 5 µM
15,O=C(c1cnn2cccc(F)c12)N1CCc2[nH]cnc2C1c1nc2ccccc2s1 (stereo not drawn) [listing 1 of 2 here],> 5 µM
16,N#Cc1ccn2ncc(C(=O)N3CCc4[nH]cnc4C3c3nc4ccc(Br)cc4[nH]3)c2c1 (stereo not drawn) [listing 1 of 2 here],> 5 µM
17,O=C(c1nccs1)N1CCc2[nH]cnc2C1c1nc2cc(F)ccc2s1 (stereo not drawn) [listing 1 of 2 here],> 5 µM
18,O=C(c1nccs1)N1CCc2nc[nH]c2C1c1nc2ccc(F)cc2s1 (stereo not drawn) [listing 1 of 2 here],> 5 µM
19,O=C(c1oc(-c2ccccn2)nc1C1CC1)N1CCCc2[nH]cnc2C1c1nc2ccccc2[nH]1 (stereo not drawn) [listing 1 of 2 here],> 5 µM
20,Cc1nnc(C(=O)N2CCc3[nH]cnc3C2c2nc3cc(Br)ccc3[nH]2)s1 (stereo not drawn),> 5 µM
21,O=C(c1cnn2c(Br)cccc12)N1CCc2[nH]cnc2C1c1nc2ccc(Br)cc2[nH]1 (stereo not drawn) [listing 1 of 2 here],> 5 µM

row,Compound,AC50
1,O=C(c1ncn2ccccc12)N1CCc2[nH]cnc2C1c1nc2ccc(Br)cc2[nH]1 (stereo not drawn) [listing 1 of 2 here],> 5 µM
2,O=C(c1cnn2cc(Br)ccc12)N1CCc2[nH]cnc2C1c1nc2ccc(Br)cc2[nH]1 (stereo not drawn),> 5 µM
3,COc1ccn2ncc(C(=O)N3CCc4[nH]cnc4C3c3nc4ccc(Br)cc4[nH]3)c2c1 (stereo not drawn) [listing 1 of 2 here],> 5 µM
4,O=C(c1cnn2cc(Cl)ccc12)N1CCc2[nH]cnc2C1c1nc2ccc(Br)cc2[nH]1 (stereo not drawn),> 5 µM
5,O=C(c1cnn2ccc(F)cc12)N1CCc2[nH]cnc2C1c1nc2ccc(Br)cc2[nH]1 (stereo not drawn) [listing 1 of 2 here],> 5 µM
6,O=C(c1cnn2ccc(Cl)cc12)N1CCc2[nH]cnc2C1c1nc2ccc(Cl)cc2[nH]1 (stereo not drawn) [listing 1 of 2 here],> 5 µM
7,Cc1ccc2c(C(=O)N3CCc4[nH]cnc4C3c3nc4ccc(Cl)cc4[nH]3)cnn2c1 (stereo not drawn) [listing 1 of 2 here],> 5 µM
8,COc1ccn2ncc(C(=O)N3CCc4[nH]cnc4C3c3nc4ccc(Cl)cc4[nH]3)c2c1 (stereo not drawn) [listing 1 of 2 here],> 5 µM
9,O=C(c1cnn2ccccc12)N1CCc2[nH]cnc2C1c1nc2ccc(F)cc2[nH]1 (stereo not drawn) [listing 1 of 2 here],> 5 µM
10,O=C(c1ccon1)N1CCc2[nH]cnc2C1c1nc2ccc(F)cc2[nH]1 (stereo not drawn) [listing 1 of 2 here],> 5 µM
11,O=C(c1nccs1)N1CCc2[nH]cnc2C1c1nc2cccc(F)c2[nH]1 (stereo not drawn) [listing 1 of 2 here],> 5 µM
12,O=C(c1cnn2cc(Br)ccc12)N1CCc2[nH]cnc2C1c1nc2ccc(Cl)cc2[nH]1 (stereo not drawn) [listing 1 of 2 here],> 5 µM
13,O=C(c1cnn2c(Br)cccc12)N1CCc2[nH]cnc2C1c1nc2ccc(Cl)cc2[nH]1 (stereo not drawn) [listing 1 of 2 here],> 5 µM
14,O=C(c1nc2ccccc2s1)N1CCc2[nH]cnc2C1c1nc2ccc(F)cc2[nH]1 (stereo not drawn) [listing 1 of 2 here],> 5 µM
15,Cc1nnc(CCC(=O)N2CCc3[nH]cnc3C2c2nc3cc(F)ccc3s2)s1 (stereo not drawn) [listing 2 of 2 here],1 to 5 µM
16,O=C(CCc1nccs1)N1CCc2[nH]cnc2C1c1nc2cc(F)ccc2s1 (stereo not drawn) [listing 2 of 2 here],1 to 5 µM
17,CC(C)(C)CCC(=O)N1CCc2[nH]cnc2C1c1nc2cc(F)ccc2s1 (stereo not drawn),1 to 5 µM
18,O=C(Cc1nc(C(F)(F)F)cs1)N1CCc2[nH]cnc2C1c1nc2ccc(Br)cc2[nH]1 (stereo not drawn) [listing 2 of 2 here],1 to 5 µM
19,O=C(Cc1nc(C(F)(F)F)cs1)N1CCc2[nH]cnc2C1c1nc2ccc(Cl)cc2[nH]1 (stereo not drawn) [listing 2 of 2 here],1 to 5 µM
20,O=C(CCc1nccs1)N1CCc2[nH]cnc2C1c1nc2ccc(Cl)cc2s1 (stereo not drawn) [listing 2 of 2 here],1 to 5 µM
21,Cc1nnc(CCC(=O)N2CCc3[nH]cnc3C2c2nc3ccc(F)cc3[nH]2)s1 (stereo not drawn),> 5 µM

row,Compound,AC50
1,O=C(Cc1nccs1)N1CCc2[nH]cnc2C1c1nc2ccc(F)cc2[nH]1 (stereo not drawn) [listing 2 of 2 here],1 to 5 µM
2,O=C(Cc1nc(C(F)(F)F)cs1)N1CCc2[nH]cnc2C1c1nc2ccc(F)cc2[nH]1 (stereo not drawn) [listing 2 of 2 here],1 to 5 µM
3,Cc1nnc(CCC(=O)N2CCc3nc[nH]c3C2c2nc3ccc(F)cc3s2)s1 (stereo not drawn),1 to 5 µM
4,O=C(c1nc2ccc(F)cc2s1)N1CCc2[nH]cnc2C1c1nc2ccccc2s1 (stereo not drawn) [listing 2 of 2 here],1 to 5 µM
5,O=C(c1ccsn1)N1CCc2[nH]cnc2C1c1nc2ccccc2s1 (stereo not drawn) [listing 2 of 2 here],1 to 5 µM
6,O=C(c1nc2ccccc2s1)N1CCc2[nH]cnc2C1c1nc2cc(F)ccc2s1 (stereo not drawn) [listing 2 of 2 here],1 to 5 µM
7,O=C(c1ncco1)N1CCc2[nH]cnc2C1c1nc2ccccc2s1 (stereo not drawn) [listing 2 of 2 here],1 to 5 µM
8,O=C(c1cnn2cccc(F)c12)N1CCc2[nH]cnc2C1c1nc2ccccc2s1 (stereo not drawn) [listing 2 of 2 here],1 to 5 µM
9,Clc1csc(CN2CCc3[nH]cnc3C2c2nc3ccccc3[nH]2)n1 (stereo not drawn),> 5 µM
10,Cc1nnc(CN2CCc3[nH]cnc3C2c2nc3ccccc3[nH]2)s1 (stereo not drawn),> 5 µM
11,Clc1ccc2nc(C3c4nc[nH]c4CCN3Cc3nccs3)[nH]c2c1 (stereo not drawn),> 5 µM
12,N#Cc1ccn2ncc(C(=O)N3CCc4[nH]cnc4C3c3nc4ccc(Br)cc4[nH]3)c2c1 (stereo not drawn) [listing 2 of 2 here],1 to 5 µM
13,N#Cc1ccn2ncc(C(=O)N3CCc4[nH]cnc4C3c3nc4ccc(Cl)cc4[nH]3)c2c1 (stereo not drawn),> 5 µM
14,Nc1nnc(CCC(=O)N2CCc3[nH]cnc3C2c2nc3ccccc3s2)s1 (stereo not drawn),> 5 µM
15,c1ccc2[nH]c(C3c4nc[nH]c4CCN3Cc3cncs3)nc2c1 (stereo not drawn),> 5 µM
16,O=C(c1nccs1)N1CCc2[nH]cnc2C1c1nc2cc(F)ccc2s1 (stereo not drawn) [listing 2 of 2 here],1 to 5 µM
17,O=C(c1nccs1)N1CCc2nc[nH]c2C1c1nc2ccc(F)cc2s1 (stereo not drawn) [listing 2 of 2 here],1 to 5 µM
18,O=C(c1cnn2c(Br)cccc12)N1CCc2[nH]cnc2C1c1nc2ccccc2[nH]1 (stereo not drawn),1 to 5 µM
19,O=C(c1nnc(-c2ccccn2)o1)N1CCc2[nH]cnc2C1c1nc2ccccc2[nH]1 (stereo not drawn),1 to 5 µM
20,Cc1nnc(C(=O)N2CCc3[nH]cnc3C2c2nc3ccccc3[nH]2)o1 (stereo not drawn),1 to 5 µM
21,O=C(c1oc(-c2ccccn2)nc1C1CC1)N1CCCc2[nH]cnc2C1c1nc2ccccc2[nH]1 (stereo not drawn) [listing 2 of 2 here],1 to 5 µM

row,Compound,AC50
1,O=C(c1nnc(-c2ccccn2)o1)N1CCCc2[nH]cnc2C1c1nc2ccccc2[nH]1 (stereo not drawn),> 5 µM
2,COc1ccn2ncc(C(=O)N3CCc4[nH]cnc4C3c3nc4ccc(Br)cc4[nH]3)c2c1 (stereo not drawn) [listing 2 of 2 here],1 to 5 µM
3,O=C(c1ncn2ccccc12)N1CCc2[nH]cnc2C1c1nc2ccc(Br)cc2[nH]1 (stereo not drawn) [listing 2 of 2 here],1 to 5 µM
4,Cc1ccc2c(C(=O)N3CCc4[nH]cnc4C3c3nc4ccc(Br)cc4[nH]3)cnn2c1 (stereo not drawn),> 5 µM
5,O=C(c1cnn2c(Br)cccc12)N1CCc2[nH]cnc2C1c1nc2ccc(Br)cc2[nH]1 (stereo not drawn) [listing 2 of 2 here],1 to 5 µM
6,O=C(c1cnn2cccc(F)c12)N1CCc2[nH]cnc2C1c1nc2ccc(Br)cc2[nH]1 (stereo not drawn),> 5 µM
7,O=C(c1cnn2ccc(F)cc12)N1CCc2[nH]cnc2C1c1nc2ccc(Br)cc2[nH]1 (stereo not drawn) [listing 2 of 2 here],1 to 5 µM
8,Cc1ccc2c(C(=O)N3CCc4[nH]cnc4C3c3nc4ccc(Cl)cc4[nH]3)cnn2c1 (stereo not drawn) [listing 2 of 2 here],1 to 5 µM
9,COc1ccn2ncc(C(=O)N3CCc4[nH]cnc4C3c3nc4ccc(Cl)cc4[nH]3)c2c1 (stereo not drawn) [listing 2 of 2 here],1 to 5 µM
10,O=C(c1cnn2cc(Cl)ccc12)N1CCc2[nH]cnc2C1c1nc2ccc(Cl)cc2[nH]1 (stereo not drawn),> 5 µM
11,O=C(c1cnn2ccc(Cl)cc12)N1CCc2[nH]cnc2C1c1nc2ccc(Cl)cc2[nH]1 (stereo not drawn) [listing 2 of 2 here],1 to 5 µM
12,O=C(c1ncn2ccccc12)N1CCc2[nH]cnc2C1c1nc2ccc(Cl)cc2[nH]1 (stereo not drawn),> 5 µM
13,O=C(c1cnn2ccccc12)N1CCc2[nH]cnc2C1c1nc2ccc(F)cc2[nH]1 (stereo not drawn) [listing 2 of 2 here],1 to 5 µM
14,O=C(c1ccon1)N1CCc2[nH]cnc2C1c1nc2ccc(F)cc2[nH]1 (stereo not drawn) [listing 2 of 2 here],1 to 5 µM
15,O=C(c1nccs1)N1CCc2[nH]cnc2C1c1nc2cccc(F)c2[nH]1 (stereo not drawn) [listing 2 of 2 here],1 to 5 µM
16,O=C(c1cnn2cc(Br)ccc12)N1CCc2[nH]cnc2C1c1nc2ccc(Cl)cc2[nH]1 (stereo not drawn) [listing 2 of 2 here],1 to 5 µM
17,O=C(c1cnn2c(Br)cccc12)N1CCc2[nH]cnc2C1c1nc2ccc(Cl)cc2[nH]1 (stereo not drawn) [listing 2 of 2 here],1 to 5 µM
18,O=C(c1nc2ccccc2s1)N1CCc2[nH]cnc2C1c1nc2ccc(F)cc2[nH]1 (stereo not drawn) [listing 2 of 2 here],1 to 5 µM
